Measured values from patent US12486244B2, “Preparation of semicarbazide-sensitive amine oxidase inhibitor and use thereof” (ENNOVABIO (ZHEJIANG) PHARMACEUTICALS CO., LTD., priority 2020, dated 2025).

Key:
Type in all cases: biochemical
[1] = target: T1, Recombinant human AOC1/DAO protein (Homo sapiens, UniProt P19801); experiment: Inhibitory activity on AOC1 (Amplex UltraRed/HRP, putrescine substrate); conditions: compound 100 μM to 5 nM
T1 construct: purchased R&D systems 8298-AO
T1 sequence (P19801 20-751): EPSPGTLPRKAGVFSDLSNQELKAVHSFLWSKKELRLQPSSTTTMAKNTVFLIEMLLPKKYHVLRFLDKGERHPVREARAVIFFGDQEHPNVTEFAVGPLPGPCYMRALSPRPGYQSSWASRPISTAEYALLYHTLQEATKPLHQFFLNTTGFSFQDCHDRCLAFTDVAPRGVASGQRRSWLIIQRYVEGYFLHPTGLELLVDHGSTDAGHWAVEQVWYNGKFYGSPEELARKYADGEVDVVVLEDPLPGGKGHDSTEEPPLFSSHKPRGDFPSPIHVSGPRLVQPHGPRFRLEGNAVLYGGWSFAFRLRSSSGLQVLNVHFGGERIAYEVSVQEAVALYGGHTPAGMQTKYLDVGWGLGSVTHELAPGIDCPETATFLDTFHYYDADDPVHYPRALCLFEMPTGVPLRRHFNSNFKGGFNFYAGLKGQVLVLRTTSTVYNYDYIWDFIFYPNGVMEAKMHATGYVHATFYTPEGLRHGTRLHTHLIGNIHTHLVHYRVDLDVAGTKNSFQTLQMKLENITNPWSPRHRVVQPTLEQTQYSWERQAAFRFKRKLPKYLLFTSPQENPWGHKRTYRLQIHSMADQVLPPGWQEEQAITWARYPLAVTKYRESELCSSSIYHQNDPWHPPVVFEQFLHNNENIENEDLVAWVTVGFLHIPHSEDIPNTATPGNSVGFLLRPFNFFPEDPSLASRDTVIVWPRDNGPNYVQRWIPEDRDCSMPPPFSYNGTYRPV
Protocol: Recombinant human AOC1/DAO protein was purchased from R&D systems (Cat: 8298-AO). Amplex UltraRed was purchased from Thermo scientific (Cat: A36006). HRP (Cat: P8250) and Putrescine (Cat: V900377) were purchased from Sigma. Enzyme reaction buffer (50 mM HEPES, 120 mM NaCl, 5 mM KCl, 2 mM CaCl2, 1.4 mM MgCl2, 0.001% Tween-20, pH7.4) was prepared. Test compound was dissolved in DMSO and serially diluted by 3-fold. The final concentration of test compound in 10 μL reaction system was 100 μM to 5 nM when AOC1 activity was detected. The content of DMSO in detection reaction system was 1%. After the DMSO solution of test compound was diluted in the enzyme reaction buffer at a volume ratio of 1:25, 10 μL of mixture was added to each well of detection plate. 4× substrate mixture (containing 400 μM Putrescine, 4U/mL HRP, 4 μM Amplex UltraRed) was prepared in the enzyme reaction buffer, 10 μL of which was added to each well. 20 μL of AOC1 protein diluted in enzyme reaction buffer was added to each well and the final concentration was 0.4 nM in 40 μL reaction system. Synergy Neo 2 was used to read the plate for detection. […] The enzyme activity was calculated based on the increased signal of each well from the 10th minute to the 30th minute. […]
(§1) Signalpositive was signal of positive control wells without test compounds added. […] IC50 value was calculated by using 4 parameters curve fitting.

Recombinant human MAO-B = target: T2, Recombinant human MAO-B (Homo sapiens, UniProt P27338); experiment: Inhibitory activity on MAO-B (MAO-Glo assay); conditions: recombinant human MAO-B 300 nM; compound 100 μM to 5 nM
T2 construct: purchased Sigma M7441
T2 sequence (P27338 1-520): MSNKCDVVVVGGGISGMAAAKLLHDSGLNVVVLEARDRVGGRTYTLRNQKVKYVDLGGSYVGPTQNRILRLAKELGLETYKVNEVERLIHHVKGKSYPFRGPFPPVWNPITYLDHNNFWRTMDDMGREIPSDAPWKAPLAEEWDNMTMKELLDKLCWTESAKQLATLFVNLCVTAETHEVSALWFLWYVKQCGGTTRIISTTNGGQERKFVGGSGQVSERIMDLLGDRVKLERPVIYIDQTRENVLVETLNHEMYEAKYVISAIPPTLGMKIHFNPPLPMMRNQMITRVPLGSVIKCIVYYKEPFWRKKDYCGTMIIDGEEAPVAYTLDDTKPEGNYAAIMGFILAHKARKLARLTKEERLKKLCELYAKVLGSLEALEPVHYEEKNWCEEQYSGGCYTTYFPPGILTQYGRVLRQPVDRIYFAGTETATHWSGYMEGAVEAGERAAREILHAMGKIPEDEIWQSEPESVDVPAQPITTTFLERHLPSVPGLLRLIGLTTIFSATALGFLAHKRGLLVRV
Protocol: (§2) This assay was used to evaluate the in vitro inhibitory activity of the compounds against SSAO/VAP-1 of different species. Recombinant human SSAO protein, mouse SSAO protein or rat SSAO protein (provided by Eli Lilly) were used. The enzyme activity detection kit, MAO-Glo Assay kit (V1402) was purchased from Promega. Enzyme reaction buffer (50 mM HEPES, 120 mM NaCl, 5 mM KCl, 2 mM CaCl2, 1.4 mM MgCl2, 0.001% Tween-20, pH 7.4) was prepared. The test compounds were dissolved in DMSO and serially diluted by 3-fold. The final concentration of test compound in a 10 μL reaction system was 1 μM to 0.05 nM when SSAO activity was detected. The content of DMSO in the detection reaction system was 1%. After the DMSO solution of test compounds was diluted in the enzyme reaction buffer at a volume ratio of 1:25, 2.5 μL of the solution was added to each well of detection plate with two replicates for each concentration. […] The reaction solution was incubated for 20 minutes at room temperature, and the plate was read with Synergy Neo 2 for detection. […]
as §1
(§3) Recombinant human MAO-A and MAO-B protein was purchased from Sigma (M7316, M7441). […] The final concentration of test compound in 10 μL reaction system was 100 μM to 5 nM when MAO-A and MAO-B activity were detected. […]

[2] = target: T3, Recombinant human SSAO protein (Homo sapiens, UniProt Q16853); experiment: In vitro inhibitory activity on SSAO/VAP-1 (MAO-Glo assay); conditions: compound 1 μM to 0.05 nM
T3 construct: Eli Lilly (provided, not purchased)
T3 sequence (Q16853 1-763): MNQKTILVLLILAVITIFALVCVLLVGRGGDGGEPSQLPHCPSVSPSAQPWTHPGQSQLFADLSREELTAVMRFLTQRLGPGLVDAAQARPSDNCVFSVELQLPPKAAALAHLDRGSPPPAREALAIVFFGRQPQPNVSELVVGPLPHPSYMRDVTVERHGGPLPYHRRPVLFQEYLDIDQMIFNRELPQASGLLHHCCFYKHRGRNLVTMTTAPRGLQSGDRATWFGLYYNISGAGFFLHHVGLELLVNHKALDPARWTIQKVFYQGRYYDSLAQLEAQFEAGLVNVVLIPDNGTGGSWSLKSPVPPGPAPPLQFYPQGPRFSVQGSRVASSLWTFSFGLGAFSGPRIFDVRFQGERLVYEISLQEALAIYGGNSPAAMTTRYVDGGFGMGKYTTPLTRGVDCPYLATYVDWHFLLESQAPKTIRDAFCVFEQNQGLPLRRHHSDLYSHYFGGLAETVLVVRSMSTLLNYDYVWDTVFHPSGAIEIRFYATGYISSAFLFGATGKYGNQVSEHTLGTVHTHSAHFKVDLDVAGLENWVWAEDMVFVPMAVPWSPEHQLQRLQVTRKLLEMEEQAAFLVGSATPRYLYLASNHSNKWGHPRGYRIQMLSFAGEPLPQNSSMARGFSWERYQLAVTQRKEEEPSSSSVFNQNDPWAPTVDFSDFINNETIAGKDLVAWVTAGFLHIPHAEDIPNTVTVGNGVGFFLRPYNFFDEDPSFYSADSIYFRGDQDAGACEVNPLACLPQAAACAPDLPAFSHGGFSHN
Protocol: as §2, with “concentration. 5 μL of SSAO protein diluted in the enzyme reaction buffer was added to each well, the final concentration of which was 10 nM to 80 nM in 10 μL reaction system.” for “concentration.”
as §1

[3] = target: T4, Recombinant human AOC2 protein (Homo sapiens, UniProt O75106); experiment: Inhibitory activity on AOC2 (MAO-Glo assay); conditions: compound 100 μM to 5 nM
T4 construct: Eli Lilly (provided, not purchased)
T4 sequence (O75106 1-756): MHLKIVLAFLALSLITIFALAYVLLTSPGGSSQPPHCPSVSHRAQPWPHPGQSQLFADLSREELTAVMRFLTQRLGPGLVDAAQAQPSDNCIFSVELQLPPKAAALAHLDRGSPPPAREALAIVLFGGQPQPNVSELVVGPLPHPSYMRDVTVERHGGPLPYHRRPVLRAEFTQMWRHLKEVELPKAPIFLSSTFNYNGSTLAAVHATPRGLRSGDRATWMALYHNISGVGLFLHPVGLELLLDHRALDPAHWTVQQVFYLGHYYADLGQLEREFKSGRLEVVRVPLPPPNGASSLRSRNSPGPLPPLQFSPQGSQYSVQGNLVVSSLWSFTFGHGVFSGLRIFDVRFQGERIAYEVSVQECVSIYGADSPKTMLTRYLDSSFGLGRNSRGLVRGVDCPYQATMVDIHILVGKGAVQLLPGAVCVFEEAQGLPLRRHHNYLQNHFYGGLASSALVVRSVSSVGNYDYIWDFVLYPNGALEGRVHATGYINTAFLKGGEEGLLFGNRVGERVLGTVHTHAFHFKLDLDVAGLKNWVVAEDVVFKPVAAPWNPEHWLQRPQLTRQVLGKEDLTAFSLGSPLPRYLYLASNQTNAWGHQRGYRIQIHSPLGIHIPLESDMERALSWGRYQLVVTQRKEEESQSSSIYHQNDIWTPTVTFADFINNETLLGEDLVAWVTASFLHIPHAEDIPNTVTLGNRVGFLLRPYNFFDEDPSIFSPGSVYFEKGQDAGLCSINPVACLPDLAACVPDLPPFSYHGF
Protocol: as §2, with “1%.” for “1%. After the DMSO solution of test compounds was diluted in the enzyme reaction buffer at a volume ratio of 1:25, 2.5 μL of the solution was added to each well of detection plate with two replicates for each concentration.”
as §1
Recombinant human AOC2 protein (provided by Eli Lilly). […] The final concentration of test compound in 10 μL reaction system was 100 μM to 5 nM when AOC2 activity was detected, while other reaction conditions were the same as those in Biological Test Example 1. […]

Recombinant human MAO-A = target: T5, Recombinant human MAO-A (Homo sapiens, UniProt P21397); experiment: Inhibitory activity on MAO-A (MAO-Glo assay); conditions: recombinant human MAO-A 70 nM; compound 100 μM to 5 nM
T5 construct: purchased Sigma M7316
T5 sequence (P21397 1-527): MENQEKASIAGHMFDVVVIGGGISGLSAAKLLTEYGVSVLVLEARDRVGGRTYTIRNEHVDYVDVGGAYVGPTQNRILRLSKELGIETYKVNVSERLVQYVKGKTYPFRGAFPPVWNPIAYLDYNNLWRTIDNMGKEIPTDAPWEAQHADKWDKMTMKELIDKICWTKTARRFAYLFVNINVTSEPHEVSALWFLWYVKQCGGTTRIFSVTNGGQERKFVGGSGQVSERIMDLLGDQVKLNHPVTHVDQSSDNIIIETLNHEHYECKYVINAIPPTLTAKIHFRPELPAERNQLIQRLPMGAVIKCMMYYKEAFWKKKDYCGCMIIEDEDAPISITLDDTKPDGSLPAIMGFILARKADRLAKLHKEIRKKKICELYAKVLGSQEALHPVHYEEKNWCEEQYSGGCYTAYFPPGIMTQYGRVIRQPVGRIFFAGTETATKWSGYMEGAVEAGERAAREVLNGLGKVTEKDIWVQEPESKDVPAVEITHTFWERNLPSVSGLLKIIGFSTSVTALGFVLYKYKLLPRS
Protocol: as §2, §1, §3

Row | IC50 [1] [µM] | IC50 (Recombinant human MAO-B) [µM] | IC50 [2] [µM] | IC50 [3] [µM] | IC50 (Recombinant human MAO-A) [µM] | Compound
1 | 0.1 to 10 | > 20 | < 0.01 | > 1 | > 100 | COCC1(O)CCN(c2ncc(OC/C(=C/F)CN)cn2)CC1 [Example 2, (E)-1-(5-((2-(aminomethyl)-3-fluoroallyl)oxy)pyrimidin-2-yl)-4-(methoxymethyl)piperidin-4-ol]
2 | > 10 | > 20 | < 0.01 | > 1 | 10 to 100 | CC1(O)CCN(c2ncc(OC/C(=C/F)CN)cn2)CC1 [Example 1, (E)-1-(5-((2-(Aminomethyl)-3-fluoroallyl)oxy)pyrimidin-2-yl)-4-methylpiperidin-4-ol]
